# Laboratory results from patent US20050170019A1, “Methods, compositions and devices for inducing stasis in cells” (Fred Hutchinson Cancer Research Center, priority 2003, published 2005).
# Tests used:
# mice [1] = details: 80 ppm, cited from earlier work
# rats = details: cited from earlier work
# mice [2] = details: mice tested before and after exposure
# mice [3] = test: Visual observation of breathing of mice administered H2S; assay type: in vivo, mouse
# Text: The different parameters of stasis (reduction in oxygen consumption, decrease in carbon dioxide production or decrease in motility) can be assessed by a variety of assays and techniques. […] Indeed, this encompasses all three parameters in that it is indicative of decreased oxygen consumption, carbon dioxide production and motility. A normal mouse in room air at standard conditions will take approximately 200 breaths per minute. […] Thus, this represents at least about a 1-20-fold decrease in cellular respiration (i.e, oxygen consumption and carbon dioxide production).
# During the experiment, the mouse was visually observed and its movements were recorded by web camera, and telemetry measurements were recorded as described above. […] At the end of an approximately six-hour period, heat was applied to the cabinet by setting the cabinet temperature to 25° C. […] After the cabinet was warmed, weak respiration was observed when the core body temperature of the mouse achieved 14° C. […] Normal movement and respiration were fully apparent when the core body temperature returned to 25° C.
# mice [4] = test: Respirometry (oxygen consumption, carbon dioxide production) of mice exposed to H2S; assay type: in vivo, mouse
# Method: Measurements were over a period of 15 minutes, with the mice in a 0.5 L sealed environmental chamber with flow rates of 500 cc/min. Consumption of oxygen is obtained by subtracting the oxygen concentration when the mouse is present, from the control when the mouse is absent. Likewise, production of carbon dioxide is obtained by subtracting the carbon dioxide concentration when the mouse is present from the control when the mouse is absent. RQ stands for respiratory quotient, and is equal to the ratio of carbon dioxide produced to oxygen […]. […] The change in the respiratory quotient reflects the disparity oxygen consumption and carbon dioxide production by the mice in the presence or absence of the H2S.
# mice [5] = test: Telemetry of core body temperature, heart rate and movement of mice in regulated H2S atmosphere; assay type: in vivo, mouse
# Text: Implantation of telemetry devices.
# Exposure of Mice to Regulated Atmosphere.
# Regulation of Ambient Temperature. […] Mice were exposed to regulated atmosphere as described above.
# humans = details: cited from earlier work
# [6] = mice, H2S 80 ppm versus without H2S
# [7] = second mouse, 80 ppm, 3 hrs, incubator 18° C.
smiles,measurement,setting,value
"S [hydrogen sulfide, Hydrogen sulfide]",tolerability,"mice [1]; exposures lasting up to ten weeks (CIIT 1983; Hays, 1972)",innocuous
same,"adverse effect, gross and histopathological examination","mice [1]; mice, 6 hrs per day, 5 days per week, 90 days",no observed adverse effect
same,neurologic effect of perinatal exposure,"rats; 20 or 50 ppm, 7 hours per day, gestation through post-natal day 21",longer dendritic branches with reduced aborization of cerebellar Purkinje cells
same,"effects in exposed rat pups, perinatal study","rats; 80 ppm (Dorman et al., 2000)","no neuropathological effects or altered motor activity, passive avoidance, or acoustic startle response"
same,learning of baited radial arm maze task,"rats; moderate levels (Partlo et al., 2001)",interferes with the ability of rats to learn a baited radial arm maze task
same,discriminated avoidance responses,"rats; moderate levels, immediately after end of exposure (Higuchi and Fukamachi)",inhibits discriminated avoidance responses
same,"adverse effect, gross and histopathological examination","rats; rats, 80 ppm, 6 hrs per day, 5 days per week, 90 days",no observed adverse effect
same,behavioral differences after gas exposure,mice [2],no detectable behavioral differences
same,core body temperature at which weak respiration was observed on warming,"mice [3]; 80 ppm, after cabinet 10.5° C., warming",14 °C
same,decrease in cellular respiration,"mice [3]; 80 ppm, core temperature 15° C., from breathing",1-20 fold
same,breathing,"mice [3]; 80 ppm, core temperature dropped to 15° C., normal approximately 200",1-10 breaths per minute
same,core body temperature at which normal movement and respiration were fully apparent,"mice [3]; after 80 ppm at 10.5° C., warming, room air",25 °C
same,RQ (respiratory quotient),mice [4]; H2S (80 ppm) present,0.58
same,production of carbon dioxide,mice [4]; H2S (80 ppm) present,750 ppm
same,Consumption of oxygen,"mice [4]; H2S (80 ppm) present, control without mouse minus mouse present",1300 ppm
same,drop in carbon dioxide production,mice [4]; [6],3-4 fold
same,drop in oxygen consumption,mice [4]; [6],2-3 fold
same,decrease in CO2 production,"mice [4]; mouse, 80 ppm (FIG. 4A)",approximately 3 fold
same,time to reduced carbon dioxide production (new baseline),"mice [4]; mouse, 80 ppm (FIG. 4A)",approximately 5 minutes
same,core temperature reached,"mice [5]; first mouse, 80 ppm, 90 min, incubator 18° C.",28.6 °C
same,time to return to normal range of core temperature and activity in room air,"mice [5]; first mouse, after 90 min at 80 ppm",≤ 60 min
same,behavior of the animals after treatment,mice [5]; four mice maintained for 4 weeks after 6 hr 80 ppm at 15° C.,no apparent change in the behavior
same,behavior compared to untreated animals,mice [5]; mouse after 80 ppm at cabinet 10.5° C.,no apparent change in the behavior
same,core body temperature repeatedly reached,"mice [5]; mouse, 80 ppm protocol",13-15 °C
same,lowest core body temperature recorded (FIG. 7),"mice [5]; mouse, 80 ppm, ambient dropped to less than 10° C.",10.7 °C
same,time to recover activity after removal from gassing chamber,"mice [5]; non-telemetry mouse, 80 ppm, cabinet 10° C.",≤ 90 min
same,core temperature reached,mice [5]; [7],18.6 °C
same,heart rate reached (from 600 bpm),mice [5]; [7],250 bpm
same,recovery after rewarming in room air,"mice [5]; seven mice, 80 ppm, 6 hrs",successfully recovered
same,lowest average core body temperature,"mice [5]; seven mice, 80 ppm, 6 hrs, ambient temperature 13° C.",15 °C
same,"core temperature reached (estimation, electronics failed at 15.3° C.)","mice [5]; telemetry mouse, 80 ppm, cabinet 10° C.",approximately 12.5 °C
same,core body temperature reached,"mice [5]; telemetry mouse, 80 ppm, cabinet 10.5° C., approximately six hours",10.5 °C
same,effect of exposure to extreme levels,humans; 500 ppm,sudden collapse and unconsciousness
same,effect of a single breath (knock down),humans; atmosphere with 0.1% hydrogen sulfide,immediately collapse
same,OSHA limit for humans,humans; in vivo,10 ppm
